Assay results: BigSolDB 2.1

Nc1c(Cl)cc([N+](=O)[O-])cc1Cl
solubility (mole fraction)
Conditions	278.15 K	283.15 K	288.15 K	293.15 K	298.15 K	303.15 K	308.15 K	313.15 K	318.15 K	323.15 K
in 1,4-dioxane	–	–	–	0.0251	0.0292	0.0337	0.0389	0.0447	0.0513	0.0598
in NMP	0.135	0.141	0.149	0.159	0.169	0.179	0.189	0.199	0.211	0.227
in acetonitrile	0.00152	0.00176	0.00211	0.00249	0.00293	0.00352	0.00411	0.00487	0.00577	0.00665
in cyclohexane	0.000119	0.000147	0.000185	0.000236	0.000301	0.000389	0.000501	0.000617	0.00074	0.000906
in ethanol	0.000879	0.00102	0.00123	0.00149	0.00183	0.00222	0.00268	0.00325	0.00384	0.00455
in ethyl acetate	0.0085	0.00938	0.0109	0.0126	0.0153	0.0177	0.0208	0.025	0.0291	0.0336
in ethylene glycol	0.000815	0.000969	0.00117	0.00139	0.00167	0.00195	0.00236	0.00281	0.00338	0.00412
in isopropanol	–	0.00093	0.00111	0.00133	0.00162	0.00195	0.00234	0.00281	0.00338	0.00413
in methanol	0.000705	0.000814	0.000987	0.00121	0.0015	0.00182	0.00224	0.00267	0.00314	0.00377
in n-butanol	0.00121	0.00148	0.00172	0.00216	0.0026	0.00308	0.00378	0.00446	0.00543	0.00638
in n-propanol	0.00102	0.00123	0.00146	0.00176	0.00216	0.00258	0.00307	0.00364	0.00441	0.00546
in water	1.88e-06	2.53e-06	3.43e-06	4.76e-06	6.43e-06	8.31e-06	1.06e-05	1.37e-05	1.72e-05	2.18e-05
